Patent publication US10750743B2, “Pyridazinone herbicides” (E.I. DU PONT DE NEMOURS AND COMPANY, priority 2015, dated 2020)

Legend:
Format in all cases: in vivo
[1] = test system: barnyardgrass (Echinochloa crus-galli); assay: Test A preemergence, directed soil spray, visual injury rating; conditions: 0 is no effect, 100 is complete control
Method in brief: (§1)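 Compounds in a surfactant-containing solvent were applied as a directed soil spray preemergence, or postemergence to plants 2-10 cm tall at the one- to two-leaf stage, in loam-sand blend. After about 10 d in the greenhouse, injury was rated visually against untreated controls on a 0-100 scale (100 = complete control).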

[2] = test system: foxtail, giant (giant foxtail, Setaria faberii); assay: as above; conditions: 0 is no effect, 100 is complete control
Method in brief: as §1

kochia (Kochia scoparia) [3] = assay: as above; conditions: 0 is no effect, 100 is complete control
Method in brief: as §1

[4] = test system: pigweed (Amaranthus retroflexus); assay: as above; conditions: 0 is no effect, 100 is complete control
Method in brief: as §1

[5] = test system: ragweed (common ragweed, Ambrosia elatior); assay: as above; conditions: 0 is no effect, 100 is complete control
Method in brief: as §1

[6] = test system: ryegrass, It. (Italian ryegrass, Lolium multiflorum); assay: as above; conditions: 0 is no effect, 100 is complete control
Method in brief: as §1

[7] = test system: barnyardgrass (Echinochloa crus-galli); assay: Test B flooded paddy test, visual rating; conditions: Flood, 250 g ai/ha, applied to paddy water, rated after 13 to 15 d
Method in brief: (§2)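 Plants grown to the 2-leaf stage. At treatment, pots were flooded to 3 cm above the soil, compound was applied directly to the paddy water, and that depth was held throughout. After 13 to 15 d in the greenhouse, response was rated visually against controls on a 0 (no effect) to 100 (complete control) scale.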

[8] = test system: ducksalad (Heteranthera limosa); assay: Test B flooded paddy test, visual rating; conditions: Flood, 250 g ai/ha, applied to paddy water, rated after 13 to 15 d
Method in brief: as §2

rice (Oryza sativa) = assay: Test B flooded paddy test, visual rating; conditions: Flood, 250 g ai/ha, applied to paddy water, rated after 13 to 15 d
Method in brief: as §2

[9] = test system: sedge, umbrella (small-flower umbrella sedge, Cyperus difformis); assay: Test B flooded paddy test, visual rating; conditions: Flood, 250 g ai/ha, applied to paddy water, rated after 13 to 15 d
Method in brief: as §2

[10] = test system: barnyardgrass (Echinochloa crus-galli); assay: Test A postemergence application, visual injury rating; conditions: 0 to 100 scale, 0 no effect, 100 complete control
Method in brief: as §1

[11] = test system: blackgrass (Alopecurus myosuroides); assay: as above; conditions: 0 to 100 scale, 0 no effect, 100 complete control
Method in brief: as §1

corn (Zea mays) = assay: as above; conditions: 0 to 100 scale, 0 no effect, 100 complete control
Method in brief: as §1

[12] = test system: foxtail, giant (giant foxtail, Setaria faberii); assay: as above; conditions: 0 to 100 scale, 0 no effect, 100 complete control
Method in brief: as §1

[13] = test system: galium (catchweed bedstraw, Galium aparine); assay: as above; conditions: 0 to 100 scale, 0 no effect, 100 complete control
Method in brief: as §1

kochia (Kochia scoparia) [14] = assay: as above; conditions: 0 to 100 scale, 0 no effect, 100 complete control
Method in brief: as §1

[15] = test system: pigweed (Amaranthus retroflexus); assay: as above; conditions: 0 to 100 scale, 0 no effect, 100 complete control
Method in brief: as §1

[16] = test system: ragweed (common ragweed, Ambrosia elatior); assay: as above; conditions: 0 to 100 scale, 0 no effect, 100 complete control
Method in brief: as §1

[17] = test system: ryegrass, It. (Italian ryegrass, Lolium multiflorum); assay: as above; conditions: 0 to 100 scale, 0 no effect, 100 complete control
Method in brief: as §1

[18] = test system: wheat (Triticum aestivum); assay: as above; conditions: 0 to 100 scale, 0 no effect, 100 complete control
Method in brief: as §1

Compound | Plant response rating (0 to 100 scale), Barnyardgrass ([1]; 31 g ai/ha) | Plant response rating (0 to 100 scale), Barnyardgrass ([1]; 125 g ai/ha) | Plant response rating (0 to 100 scale), Foxtail, Giant ([2]; 31 g ai/ha) | Plant response rating (0 to 100 scale), Foxtail, Giant ([2]; 125 g ai/ha) | Plant response rating (0 to 100 scale), Kochia (kochia (Kochia scoparia) [3]; 31 g ai/ha) | Plant response rating (0 to 100 scale), Kochia (kochia (Kochia scoparia) [3]; 125 g ai/ha) | Plant response rating (0 to 100 scale), Pigweed ([4]; 31 g ai/ha) | Plant response rating (0 to 100 scale), Pigweed ([4]; 125 g ai/ha) | Plant response rating (0 to 100 scale), Ragweed ([5]; 31 g ai/ha) | Plant response rating (0 to 100 scale), Ragweed ([5]; 125 g ai/ha) | Plant response rating (0 to 100 scale), Ryegrass, It. ([6]; 31 g ai/ha) | Plant response rating (0 to 100 scale), Ryegrass, It. ([6]; 125 g ai/ha) | Barnyardgrass plant response rating (0 to 100 scale, 0 is no effect, 100 is complete control) [7] | Ducksalad plant response rating (0 to 100 scale, 0 is no effect, 100 is complete control) [8] | Rice plant response rating (0 to 100 scale, 0 is no effect, 100 is complete control) (rice (Oryza sativa)) | Sedge, Umbrella plant response rating (0 to 100 scale, 0 is no effect, 100 is complete control) [9] | Barnyardgrass plant response rating ([10]; 31 g ai/ha) | Barnyardgrass plant response rating ([10]; 125 g ai/ha) | Blackgrass plant response rating ([11]; 31 g ai/ha) | Blackgrass plant response rating ([11]; 125 g ai/ha) | also measured
CCC(=O)Oc1c(C)nn(C)c(=O)c1-c1ccc(Cl)c2cc(C)oc12 [Compound 41] | 0 | 70 | 20 | 80 | 0 | 0 | 0 | 90 | 0 | 70 | 90 | 100 | 20 | 20 | 0 | 75 | 20 | 50 | 20 | 50 | Corn plant response rating (corn (Zea mays); 31 g ai/ha): 0; Corn plant response rating (corn (Zea mays); 125 g ai/ha): 20; Foxtail, Giant plant response rating ([12]; 31 g ai/ha): 20; Foxtail, Giant plant response rating ([12]; 125 g ai/ha): 60; Galium plant response rating ([13]; 31 g ai/ha): 90; Galium plant response rating ([13]; 125 g ai/ha): 100; Kochia plant response rating (kochia (Kochia scoparia) [14]; 31 g ai/ha): 0; Kochia plant response rating (kochia (Kochia scoparia) [14]; 125 g ai/ha): 0; Pigweed plant response rating ([15]; 31 g ai/ha): 40; Pigweed plant response rating ([15]; 125 g ai/ha): 70; Ragweed plant response rating ([16]; 31 g ai/ha): 80; Ragweed plant response rating ([16]; 125 g ai/ha): 80; Ryegrass, It. plant response rating ([17]; 31 g ai/ha): 90; Ryegrass, It. plant response rating ([17]; 125 g ai/ha): 100; Wheat plant response rating ([18]; 31 g ai/ha): 0; Wheat plant response rating ([18]; 125 g ai/ha): 0
CC(=O)Oc1c(C)nn(C)c(=O)c1-c1ccc(Cl)c2cc(C)oc12 [Compound 42] | 10 | 60 | 10 | 50 | 0 | 0 | 0 | 40 | 30 | 40 | 60 | 90 | 0 | 80 | 0 | 60 | 10 | 40 | 20 | 50 | Corn plant response rating (corn (Zea mays); 31 g ai/ha): 0; Corn plant response rating (corn (Zea mays); 125 g ai/ha): 10; Foxtail, Giant plant response rating ([12]; 31 g ai/ha): 10; Foxtail, Giant plant response rating ([12]; 125 g ai/ha): 30; Galium plant response rating ([13]; 31 g ai/ha): 90; Galium plant response rating ([13]; 125 g ai/ha): 90; Kochia plant response rating (kochia (Kochia scoparia) [14]; 31 g ai/ha): 0; Kochia plant response rating (kochia (Kochia scoparia) [14]; 125 g ai/ha): 0; Pigweed plant response rating ([15]; 31 g ai/ha): 30; Pigweed plant response rating ([15]; 125 g ai/ha): 50; Ragweed plant response rating ([16]; 31 g ai/ha): 20; Ragweed plant response rating ([16]; 125 g ai/ha): 10; Ryegrass, It. plant response rating ([17]; 31 g ai/ha): 70; Ryegrass, It. plant response rating ([17]; 125 g ai/ha): 90; Wheat plant response rating ([18]; 31 g ai/ha): 0; Wheat plant response rating ([18]; 125 g ai/ha): 0
Cc1cc2c(Cl)ccc(-c3c(O)c(C)nn(C)c3=O)c2o1 [Compound 43] | 10 | 30 | 10 | 40 | 0 | 0 | 0 | 0 | 30 | 30 | 60 | 80 | 0 | 40 | 0 | 35 | 0 | 10 | 0 | 50 | Corn plant response rating (corn (Zea mays); 31 g ai/ha): 0; Corn plant response rating (corn (Zea mays); 125 g ai/ha): 0; Foxtail, Giant plant response rating ([12]; 31 g ai/ha): 0; Foxtail, Giant plant response rating ([12]; 125 g ai/ha): 0; Galium plant response rating ([13]; 31 g ai/ha): 70; Galium plant response rating ([13]; 125 g ai/ha): 80; Kochia plant response rating (kochia (Kochia scoparia) [14]; 31 g ai/ha): 0; Kochia plant response rating (kochia (Kochia scoparia) [14]; 125 g ai/ha): 0; Pigweed plant response rating ([15]; 31 g ai/ha): 0; Pigweed plant response rating ([15]; 125 g ai/ha): 0; Ragweed plant response rating ([16]; 31 g ai/ha): 0; Ragweed plant response rating ([16]; 125 g ai/ha): 20; Ryegrass, It. plant response rating ([17]; 31 g ai/ha): 50; Ryegrass, It. plant response rating ([17]; 125 g ai/ha): 80; Wheat plant response rating ([18]; 31 g ai/ha): 0; Wheat plant response rating ([18]; 125 g ai/ha): 10
